{"source": "paper PMC6460286", "about": "(Biochimie, 2017)", "key": {"[1]": {"system": "HIF PHD (HIF1 ODD-luc reporter)", "details": "specific for HIF PHD; cited from earlier work"}, "[2]": {"experiment": "Potassium ferricyanide reduction", "assay_type": "physicochemical", "details": "1 mM agent, 1 mM potassium ferricyanide, 50 mM Tris-HCl buffer, pH 7.4"}, "[3]": {"system": "HIF-1 target genes (VEGF, HO-1), HIF1α, NQO-1", "experiment": "RT-PCR of HIF1 target genes in N2a cells", "assay_type": "cell-based, mouse", "details": "4 h"}, "[4]": {"system": "HIF PHD (HIF1 ODD-luc reporter)", "experiment": "HIF1 ODD-luc reporter assay in SH-SY5Y cells", "assay_type": "cell-based", "details": "for effect on HIF1 ODD-luc reporter activation induced by Compound 8a: agents applied in equal concentration; for effect on reporter activation by HIF PHD inhibitors of various nature: NAC up to millimolar concentrations"}, "HIF1 and HIF2": {"system": "HIF1 and HIF2", "details": "cited from earlier work"}, "PHD2": {"biological_target": "PHD2", "details": "ref 36 (FG-4592), ref 37 (IOX2); cited from earlier work"}, "HIF": {"system": "HIF", "details": "cited from earlier work"}, "HIF PHD": {"system": "HIF PHD", "details": "cited from earlier work"}, "[5]": {"details": "3 h incubation, physiological L-Asc (0.04–0.1 mM)"}, "[6]": {"details": "reporter activation by Compound 8a"}}, "note": "Where two headings read alike, the source gives them in different places."}
{"smiles": "Oc1cccnc1NC(c1ccc(Cl)cc1)c1ccc2cccnc2c1O", "note": "(stereo not drawn) [Compound 8, adaptaquin]", "values": [{"measurement": "EC50", "setting": "[1]", "result": "~2", "unit": "µM"}]}
{"smiles": "O=C1O[C@H]([C@H](O)CO)C(O)=C1O", "note": "[D-Asc, D-isoascorbic acid]", "values": [{"measurement": "reducing power (ferricyanide reduction kinetics), L-Asc vs D-Asc", "setting": "[2]", "result": "no difference in reduction kinetics"}, {"measurement": "inhibition of HIF1 target gene activation", "setting": "[3]; 100 μM co-treatment with 5 μM Compound 8a", "result": "under 10%"}, {"measurement": "effect on HIF1 ODD-luc reporter activation induced by Compound 8a", "setting": "[4]; 3 h incubation", "result": "neither D-Asc nor NAC applied in the equal concentration cause any change"}, {"measurement": "effect on reporter activation by HIF PHD inhibitors of various nature", "setting": "[4]", "result": "minor effect, if any"}]}
{"smiles": "CCOC(=O)c1ccc(O)c(O)c1", "note": "[DHB, Ethyl 3,4-dihydroxybenzoate]", "values": [{"measurement": "suppressing effect of L-Asc on reporter activation induced by the inhibitor", "setting": "[4]; [5]", "result": "very sensitive to L-Asc"}, {"measurement": "EC50", "setting": "[4]; read-out: EC50 of reporter activation", "result": 250, "unit": "µM"}]}
{"smiles": "COC(=O)CNC(=O)C(=O)OC", "note": "[DMOG, dimethyloxalyl glycine]", "values": [{"measurement": "suppressing effect of L-Asc on reporter activation induced by the inhibitor", "setting": "[4]; [5]", "result": "pronounced for DMOG up to 250 μM"}, {"measurement": "suppressing effect of L-Asc on reporter activation induced by the inhibitor", "setting": "[4]; higher DMOG concentrations (mM range), not shown", "result": "negligible"}, {"measurement": "working concentration resulting in HIF1 and HIF2 stabilization", "setting": "HIF1 and HIF2; after 2 h incubation", "result": "ca. 1 mM"}]}
{"smiles": "Cc1nc(C(=O)NCC(=O)O)c(O)c2ccc(Oc3ccccc3)cc12", "note": "[FG-4592]", "values": [{"measurement": "suppressing effect of L-Asc on reporter activation induced by the inhibitor", "setting": "[4]; [5]", "result": "minimal"}, {"measurement": "concentration above which toxicity is seen", "setting": "[4]; titration up to 0.6 mM, Supplementary Fig. S2", "result": "above 100 μM"}]}
{"smiles": "O=C(O)CNC(=O)c1c(O)c2ccccc2n(Cc2ccccc2)c1=O", "note": "[IOX2]", "values": [{"measurement": "inhibition constant, homogeneous enzyme assay with PHD2", "setting": "PHD2", "result": "nanomolar range"}, {"measurement": "suppressing effect of L-Asc on reporter activation induced by the inhibitor", "setting": "[4]; [5]", "result": "minimal"}]}
{"smiles": "O=C1O[C@H]([C@@H](O)CO)C(O)=C1O", "note": "[L-Asc, L-ascorbic acid]", "values": [{"measurement": "concentration giving the comparable suppressive effect on HIF stability", "setting": "HIF", "result": 50, "unit": "µM"}, {"measurement": "Km", "setting": "HIF PHD", "result": "~50", "unit": "µM"}, {"measurement": "reducing power (ferricyanide reduction kinetics), L-Asc vs D-Asc", "setting": "[2]", "result": "no difference in reduction kinetics"}, {"measurement": "effect of L-Asc alone on expression of HIF1 target genes", "setting": "[3]; 100 μM", "result": "no changes"}, {"measurement": "effect on HIF1 ODD-luc reporter activation induced by Compound 8a", "setting": "[4]; 3 h incubation", "result": "potently suppresses"}, {"measurement": "L-Asc concentration at which suppression is already observed", "setting": "[4]; [6]", "result": 10, "unit": "µM"}, {"measurement": "concentration above which L-Asc effect shows saturation", "setting": "[4]; [6]", "result": "above 40 μM"}, {"measurement": "drop in magnitude of reporter activation with increase in L-Asc concentration", "setting": "[4]; [6]", "result": 2.5, "unit": "fold"}, {"measurement": "increase in EC50 of Compound 8a with increase in L-Asc concentration", "setting": "[4]; [6]", "result": "ca. 1.5 fold"}, {"measurement": "L-Asc effect on HIF stabilization induced by 1 mM monomethyloxalylglycine", "setting": "HIF1 and HIF2; immunoblotting", "result": "absence of L-Asc effect"}]}
{"smiles": "CC(=O)N[C@@H](CS)C(=O)O", "note": "[NAC, N-acetylcysteine]", "values": [{"measurement": "effect on HIF1 ODD-luc reporter activation induced by Compound 8a", "setting": "[4]; 3 h incubation", "result": "neither D-Asc nor NAC applied in the equal concentration cause any change"}, {"measurement": "suppressing effect on reporter activation", "setting": "[4]; NAC up to 1 mM, either drug, not shown", "result": "no suppressing effect"}, {"measurement": "effect on reporter activation by HIF PHD inhibitors of various nature", "setting": "[4]", "result": "no effect"}]}
